Source: ChEMBL document CHEMBL1806479, “Structure-activity study on a series of α-glutamic acid scaffold based compounds as new ADAMTS inhibitors” (Bioorg Med Chem Lett, 2011)

Legend:
[1] = target: T1, A disintegrin and metalloproteinase with thrombospondin motifs 4 (Homo sapiens) (UniProt O75173); experiment: Inhibition of human recombinant ADAMTS4 at 1 uM by fluorimetric assay
T1 sequence (whole entry): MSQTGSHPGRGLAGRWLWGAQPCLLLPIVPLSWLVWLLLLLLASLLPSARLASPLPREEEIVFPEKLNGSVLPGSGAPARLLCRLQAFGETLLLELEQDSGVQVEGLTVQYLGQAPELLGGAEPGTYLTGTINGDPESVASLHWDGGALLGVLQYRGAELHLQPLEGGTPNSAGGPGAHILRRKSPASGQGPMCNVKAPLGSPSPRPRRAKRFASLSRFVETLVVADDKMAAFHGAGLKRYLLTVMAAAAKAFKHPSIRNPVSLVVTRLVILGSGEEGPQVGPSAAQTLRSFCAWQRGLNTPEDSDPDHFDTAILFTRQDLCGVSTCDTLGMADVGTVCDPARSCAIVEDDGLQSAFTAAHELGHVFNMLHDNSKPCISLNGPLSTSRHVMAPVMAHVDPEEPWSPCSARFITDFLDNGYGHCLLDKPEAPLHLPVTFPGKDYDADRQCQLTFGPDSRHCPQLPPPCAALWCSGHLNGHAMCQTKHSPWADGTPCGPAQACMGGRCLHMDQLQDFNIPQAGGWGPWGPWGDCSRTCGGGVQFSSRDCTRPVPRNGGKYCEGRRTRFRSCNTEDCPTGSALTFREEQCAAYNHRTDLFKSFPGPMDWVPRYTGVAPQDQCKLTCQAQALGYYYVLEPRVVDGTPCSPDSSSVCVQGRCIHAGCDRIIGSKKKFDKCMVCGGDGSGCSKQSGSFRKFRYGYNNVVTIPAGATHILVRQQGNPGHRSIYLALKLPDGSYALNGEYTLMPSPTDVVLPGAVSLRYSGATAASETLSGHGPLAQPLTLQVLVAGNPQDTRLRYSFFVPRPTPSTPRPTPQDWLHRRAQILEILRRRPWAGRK

[2] = target: T1, A disintegrin and metalloproteinase with thrombospondin motifs 4 (Homo sapiens); experiment: Inhibition of human recombinant ADAMTS4 at 10 uM by fluorimetric assay
[3] = target: T2, A disintegrin and metalloproteinase with thrombospondin motifs 5 (Homo sapiens, UniProt Q9UNA0); experiment: Inhibition of human recombinant ADAMTS5 by fluorimetric assay
T2 sequence (Q9UNA0 whole entry): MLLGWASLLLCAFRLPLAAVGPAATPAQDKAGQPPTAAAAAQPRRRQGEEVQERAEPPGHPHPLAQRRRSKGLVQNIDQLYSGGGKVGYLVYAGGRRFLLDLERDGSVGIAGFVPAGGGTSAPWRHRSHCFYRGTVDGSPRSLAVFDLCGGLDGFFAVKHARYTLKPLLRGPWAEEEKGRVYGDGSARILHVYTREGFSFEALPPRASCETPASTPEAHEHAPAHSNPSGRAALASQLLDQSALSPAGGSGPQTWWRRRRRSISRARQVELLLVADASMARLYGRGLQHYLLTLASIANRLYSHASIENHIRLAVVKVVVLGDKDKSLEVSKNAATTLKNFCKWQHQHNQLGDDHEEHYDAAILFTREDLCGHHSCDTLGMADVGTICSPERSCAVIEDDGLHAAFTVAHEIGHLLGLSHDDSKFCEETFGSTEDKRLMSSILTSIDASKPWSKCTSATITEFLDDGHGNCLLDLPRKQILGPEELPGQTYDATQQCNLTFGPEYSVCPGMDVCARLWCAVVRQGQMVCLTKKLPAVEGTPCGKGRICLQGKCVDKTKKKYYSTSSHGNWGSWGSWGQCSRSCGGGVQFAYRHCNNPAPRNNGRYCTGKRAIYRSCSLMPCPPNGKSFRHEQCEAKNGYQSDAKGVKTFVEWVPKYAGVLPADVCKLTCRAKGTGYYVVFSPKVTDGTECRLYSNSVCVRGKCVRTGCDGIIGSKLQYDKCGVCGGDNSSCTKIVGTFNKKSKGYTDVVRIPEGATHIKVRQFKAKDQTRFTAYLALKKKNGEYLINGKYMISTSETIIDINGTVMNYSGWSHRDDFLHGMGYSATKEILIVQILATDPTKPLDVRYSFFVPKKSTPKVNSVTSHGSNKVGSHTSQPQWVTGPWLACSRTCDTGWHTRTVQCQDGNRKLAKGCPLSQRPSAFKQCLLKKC

[4] = target: T1, A disintegrin and metalloproteinase with thrombospondin motifs 4 (Homo sapiens); experiment: (§1) Inhibition of human recombinant ADAMTS4 by fluorimetric assay
[5] = target: T3, A disintegrin and metalloproteinase with thrombospondin motifs 4 (Homo sapiens, UniProt O75173); experiment: as §1
T3 sequence (O75173 whole entry): T1 sequence (whole entry)

[6] = Inhibition of aggrecanase

Question: Which results are given for `O=C(O)CC[C@H](NC(=O)c1ccc(-c2ccccc2)cc1)c1nnc(CCc2ccc(O)cc2)o1`?
Answer: inhibition [1]: 22%; inhibition [2]: 51%

Question: With `COc1cc(Cc2nnc([C@H](CCC(=O)O)NC(=O)c3ccc(-c4ccccc4)cc3)o2)cc(OC)c1OC` as the compound, how does the IC50 [3] read?
Answer: 0.8 µM

Question: What about the inhibition [4] of the same compound?
Answer: Dose-dependent effect

Question: And the IC50 [5]?
Answer: 1.2 µM

Question: And the inhibition [1]?
Answer: 47%

Question: And the inhibition [2]?
Answer: 86%

Question: For `CC(C)(Cc1nnc([C@H](CCC(=O)O)NC(=O)c2ccc(-c3ccccc3)cc2)o1)c1ccccc1`, which inhibition [1] is on record?
Answer: 19%

Question: What about the inhibition [2] of the same compound?
Answer: 45%

Question: Which IC50 [6] does the source give for `O=C(C[C@@H](Cc1ccc(-c2ccc3c(c2)OCO3)cc1)C(=O)N[C@@H]1c2ccccc2C[C@@H]1O)NO` here?
Answer: 0.0015 µM

Question: Which results are given for `COc1ccc(Cc2nnc([C@H](CCC(=O)O)NC(=O)c3ccc(-c4ccccc4)cc3)o2)cc1`?
Answer: inhibition [1]: 5%; inhibition [2]: 21%

Question: Which inhibition [1] does the source give for `O=C(O)CC[C@H](NC(=O)c1ccc(-c2ccncc2)cc1)c1nnc(CCc2ccccc2)o1` here?
Answer: 8%

Question: What about the inhibition [2] of the same compound?
Answer: 18%

Question: Which inhibition [1] does the source give for `CC(C)(c1ccccc1)c1nnc([C@H](CCC(=O)O)NC(=O)c2ccc(-c3ccccc3)cc2)o1` here?
Answer: -5%

Question: What about the inhibition [2] of the same compound?
Answer: 5%

Question: Which IC50 [3] does the source give for `COc1cc(CCc2nnc([C@H](CCC(=O)O)NC(=O)c3ccc(-c4ccccc4)cc3)o2)cc(OC)c1OC` here?
Answer: 4.3 µM

Question: What about the inhibition [4] of the same compound?
Answer: Dose-dependent effect

Question: And the IC50 [5]?
Answer: 3.3 µM

Question: What about the inhibition [1] of the same compound?
Answer: 35%

Question: What about the inhibition [2] of the same compound?
Answer: 74%

Question: What does the source list for `COc1ccc(CCc2nnc([C@H](CCC(=O)O)NC(=O)c3ccc(-c4ccccc4)cc3)o2)cc1`?
Answer: IC50 [3]: 24.3 µM; inhibition [4]: Dose-dependent effect; IC50 [5]: 4.9 µM; inhibition [1]: 35%; inhibition [2]: 66%

Question: For `O=C(O)CC[C@H](NC(=O)c1ccc(-c2ccccc2)cc1)c1nnc(C2(c3ccccc3)CC2)o1`, which inhibition [1] is on record?
Answer: 5%

Question: And the inhibition [2]?
Answer: 20%

Question: For `Cc1ccc(CCc2nnc([C@H](CCC(=O)O)NC(=O)c3ccc(-c4ccccc4)cc3)o2)cc1`, which inhibition [1] is on record?
Answer: 27%

Question: And the inhibition [2]?
Answer: 56%

Question: For `O=C(O)CC[C@H](NC(=O)c1ccc(-c2cccnc2)cc1)c1nnc(CCc2ccccc2)o1`, which inhibition [1] is on record?
Answer: 12%

Question: What about the inhibition [2] of the same compound?
Answer: 39%

Question: What does the source list for `O=C(O)CC[C@H](NC(=O)c1ccc(-c2ccccc2)cc1)c1nnc(CCc2ccccc2)o1`?
Answer: IC50 [3]: 57.3 µM; inhibition [4]: Dose-dependent effect; IC50 [5]: 9.7 µM; inhibition [1]: 30%; inhibition [2]: 59%

Question: For `CC(C)(Cc1ccccc1)c1nnc([C@H](CCC(=O)O)NC(=O)c2ccc(-c3ccccc3)cc2)o1`, which inhibition [1] is on record?
Answer: 23%

Question: And the inhibition [2]?
Answer: 47%

Question: With `O=C(O)CC[C@H](NC(=O)c1ccc(-c2ccccc2)cc1)c1nnc(Cc2ccccc2)o1` as the compound, how does the inhibition [1] read?
Answer: 17%

Question: What about the inhibition [2] of the same compound?
Answer: 26%
